The target in experiment [1] is Cyclin-dependent kinase 8/19 (Homo sapiens, UniProt P49336+Q9BWU1). Particulars: ST-2.
Description: Inhibition of CDK8/CDK19 in ST2 cells by alkaline phosphatase activity assay
Experiment [2] concerns CWR22R. The experiment in a line: Antitumor activity against human 22Rv1 cells expressing AR-V7 xenografted in male nude mouse assessed as suppression of tumor growth at 133 mg/kg, administered once a day for 20 days. It counts as functional, organism-based. On the technique in general: In xenograft studies the graft and the host belong to different species.
Experiment [3] relates to CWR22R. The experiment in a line: Antitumor activity against human 22Rv1 cells expressing AR-V7 xenografted in male nude mouse assessed as suppression of tumor growth at 66 mg/kg, administered twice a day for 20 days. It counts as functional, organism-based.
In experiment [4] the test system is Myc-CaP. Kind of experiment: Antiproliferative activity against murine castration-resistant Myc-CaP cells at 1 uM assessed as growth inhibition relative to control. It counts as functional. The following applies: Mus musculus.
Experiment [5] has as its system Myc-CaP. Kind of experiment: Antiproliferative activity against murine castration-resistant Myc-CaP cells at 1 uM assessed as growth inhibition in presence of 5 uM enzalutamide relative to control. It counts as functional. The following applies: Mus musculus.
For experiment [6], the system named is Myc-CaP. Kind of experiment: Inhibition of colony formation in murine castration-resistant Myc-CaP cells at 1 uM by clonogenic assay. It counts as functional. The following applies: Mus musculus.
In experiment [7] the test system is Myc-CaP. The experiment in a line: Inhibition of colony formation in murine castration-resistant Myc-CaP cells at 1 uM in presence of 5 uM enzalutamide by clonogenic assay relative to control. It counts as functional. Particulars: Mus musculus.
The subject of the next experiment is 4T1. The experiment in a line: Antitumor activity against murine 4T1 cells xenografted in mouse assessed as suppression of tumor volume at 50 mg/kg, po. It counts as functional, organism-based.

Calls of active or inactive are those of the source. The rule behind the calls is not given here.

Chain of Cyclin-dependent kinase 8/19 (P49336 whole entry, looked up): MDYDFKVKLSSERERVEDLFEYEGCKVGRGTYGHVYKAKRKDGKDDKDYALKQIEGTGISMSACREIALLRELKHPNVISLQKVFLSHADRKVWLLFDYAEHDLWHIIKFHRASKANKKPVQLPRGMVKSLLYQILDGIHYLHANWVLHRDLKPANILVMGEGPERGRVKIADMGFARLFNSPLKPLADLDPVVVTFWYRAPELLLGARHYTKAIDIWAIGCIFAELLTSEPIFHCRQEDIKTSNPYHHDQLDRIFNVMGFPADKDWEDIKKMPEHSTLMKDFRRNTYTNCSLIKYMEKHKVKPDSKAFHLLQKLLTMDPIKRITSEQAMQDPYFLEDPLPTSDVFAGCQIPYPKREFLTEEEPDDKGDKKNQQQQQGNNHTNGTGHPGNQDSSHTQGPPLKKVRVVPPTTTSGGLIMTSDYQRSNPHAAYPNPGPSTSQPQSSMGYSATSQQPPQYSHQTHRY
Chain of Cyclin-dependent kinase 8/19 (Q9BWU1 whole entry, looked up): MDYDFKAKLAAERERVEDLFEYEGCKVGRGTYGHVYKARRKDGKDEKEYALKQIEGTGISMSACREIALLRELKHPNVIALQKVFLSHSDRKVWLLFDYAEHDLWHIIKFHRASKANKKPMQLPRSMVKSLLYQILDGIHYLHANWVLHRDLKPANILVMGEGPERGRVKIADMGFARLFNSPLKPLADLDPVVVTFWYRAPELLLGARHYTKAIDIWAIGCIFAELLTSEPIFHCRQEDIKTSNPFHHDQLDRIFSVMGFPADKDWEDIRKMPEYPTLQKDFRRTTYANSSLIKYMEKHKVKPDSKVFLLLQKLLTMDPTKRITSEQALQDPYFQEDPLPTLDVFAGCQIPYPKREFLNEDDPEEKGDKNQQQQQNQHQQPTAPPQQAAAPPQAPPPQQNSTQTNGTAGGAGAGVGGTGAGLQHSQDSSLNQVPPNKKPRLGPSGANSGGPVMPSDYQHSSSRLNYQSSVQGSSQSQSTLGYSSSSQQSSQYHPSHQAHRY

`Cc1ccc(N2CCCN(c3ccnc4sc(C(N)=O)c(N)c34)CC2)cc1` gave an EC200 in experiment [1] of 88.1 nM.
On to `COc1ccc(N2CCCN(c3ccnc4sc(C(N)=O)c(N)c34)CC2)cc1`, for which the EC200 in experiment [1] amounted to 115 nM.
With `CN1CCN(C(=O)c2ccc3cc(CCNc4ncnc5ccc(C#N)cc45)ccc3c2)CC1` [SENEXIN B], the outcome with CWR22R [2], in the experiment with CWR22R [3], in the experiment with Myc-CaP [4], with Myc-CaP [5] and in the experiment with 4T1 was Active. In addition, the inhibition result in the experiment on Myc-CaP [6] and in the experiment on Myc-CaP [7] was “Active” in each case.
`CN(C)C(=O)Cc1ccc(N2CCCN(c3ccnc4sc(C(N)=O)c(N)c34)CC2)cc1` displayed an EC200 in experiment [1] of 6.6 nM.
Same read-out and setting: the figure for `CNC(=O)c1ccc(N2CCCN(c3ccnc4sc(C(N)=O)c(N)c34)CC2)cc1` is 54.2 nM.

(Values after ChEMBL document CHEMBL4804286, “3-amino-4-(4-(4 (dimethylcarbamoyl) phenyl)-1,4-diazepan-1-yl) thieno [2,3-b] pyridine-2-carboxamide for use in cancer therapy and formulations comprising the same” (2020).)
